Reference: patent publication US10266515B2, “Therapeutic inhibitory compounds” (LifeSci Pharmaceuticals, Inc., priority 2013, dated 2019)

Target: human plasma kallikrein (Homo sapiens (Human), UniProt P03952)
Assay: In vitro enzyme inhibition of human plasma kallikrein (PFR-AMC cleavage)
Type: biochemical
Details: Pro-Phe-Arg-AMC substrate, 37° C., read-out: hPK IC50
Procedure: The ability of the compounds disclosed herein to inhibit human plasma kallikrein activity was quantified according to the procedures below.
A 10 mM solution of the test compound was made in DMSO. […] A control tube containing only DMSO is included. 16 μL of each compound test solution was combined with 384 μL of assay buffer (50 mM Tris-HCl pH 7.5, 150 mM NaCl, 0.01% Triton X-100) to yield a “4× test compound buffer stock”.
These solutions are hereby referred to as 4×hPK and 2×PFR-AMC, respectively.
50 μL was removed from this mixture and placed into duplicate wells on a Microfluor 1Black U-bottom microtiter plate (Thermo Scientific). This plate was incubated for 5 minutes at 37° C. To each well, 50 μL of pre-warmed 2×PFR-AMC was added to start the enzymatic reaction. Cleavage of PFR-AMC was monitored in a Biotek Synergy H4 reader set at 37° C. Readings are taken every 43 seconds for 1 hour. […] The IC50 is calculated using the Gen5 (Biotek Instruments).
The ability of the compounds in Table 3 to inhibit human plasma kallikrein activity was determined.

Sequence of human plasma kallikrein (P03952 391-638 limits assumed): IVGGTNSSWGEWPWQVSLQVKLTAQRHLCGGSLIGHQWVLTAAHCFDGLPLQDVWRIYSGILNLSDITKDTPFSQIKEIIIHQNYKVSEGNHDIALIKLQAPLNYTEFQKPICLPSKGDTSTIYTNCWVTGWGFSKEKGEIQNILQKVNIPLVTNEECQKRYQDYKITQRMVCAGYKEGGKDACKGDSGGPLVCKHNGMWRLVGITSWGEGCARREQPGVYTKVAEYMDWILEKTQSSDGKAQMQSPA
Sequence of human plasma kallikrein (P03952 20-390 partner limits assumed): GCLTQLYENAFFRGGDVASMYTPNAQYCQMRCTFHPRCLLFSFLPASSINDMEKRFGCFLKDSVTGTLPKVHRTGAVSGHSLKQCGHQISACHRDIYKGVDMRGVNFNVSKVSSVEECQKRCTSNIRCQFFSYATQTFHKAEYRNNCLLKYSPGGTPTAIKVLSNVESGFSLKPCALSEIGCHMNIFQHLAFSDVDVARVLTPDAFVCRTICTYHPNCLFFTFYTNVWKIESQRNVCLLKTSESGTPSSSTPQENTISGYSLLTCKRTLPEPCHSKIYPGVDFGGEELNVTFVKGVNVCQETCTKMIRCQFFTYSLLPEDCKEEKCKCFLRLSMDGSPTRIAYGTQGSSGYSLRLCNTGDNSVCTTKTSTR

N-((3-chloro-6-fluoro-1H-indol-5-yl)methyl)-2-((2-isocyanoquinolin-6-yl)methyl)isonicotinamide [Example 130]
IC50: < 100 nM
